Test results reported in patent publication US9682965B2, “Fumagillol heterocyclic compounds and methods of making and using same” (Zafgen, Inc., priority 2015, dated 2017).
Counter-ions that a name gives are not always drawn.

System: Diet Induced Obese (DIO) C57BL/6 mice
Assay: 10 day DIO mouse model (body weight, food intake, hematology, blood chemistry)
Type: in vivo
Details: 240 h; DIO mouse, 0.3 mpk sc, once a day for 10 days; read-out: DIO Mouse 10-day weight loss vs vehicle
Text: The objective of this study design was to investigate the efficacy of disclosed compounds in a 10 day DIO mouse model. Effects on body weight, food intake, hematology and blood chemistry were the primary readouts of this study design. […] Mice were fed Research Diets D12492 (60% Kcal fat, 20% Kcal carbohydrate and 20% protein) and provided water ad libitum. DIO mice were received and housed in the facility for approximately two weeks prior to the start of test article administration. On Day −4 or −3, mice were randomized into study groups based on body weight and body weights were continued to be recorded daily for the duration of the study. Daily food intake was assessed starting on Study Day −2 by weighing of the food with hopper together to avoid loss of food in transfer.
Compounds were formulated into a 100% DMSO stock (at 9 mg/mL) prior to the start, and further diluted into the target working concentration using the vehicle of 10% DMSO in water. Prior to test article administration, starting on Day −3 a dosing acclimation occured with all animals receiving a subcutaneous injection of vehicle (10% DMSO) only for 3 days. Starting on Day 1, test compounds or vehicle were administered based on individual body weight, subcutaneously, once a day for 10 days. All mice were sacrificed on Day 11, 24 hours following the final dosing on Day 10. After sacrifice, whole blood was collected and analyzed for hematology and blood chemistry parameters.
Compounds were tested vs. vehicle at various doses (1.0, 0.5, 0.3, 0.1, 0.03 mpk sc (mg per kg animal weight delivered subcutaneously), and the results are shown in Table 2 below.

Compared with `CO[C@@H]1[C@H](OC(=O)N2CC(CCC3CN(CC(F)F)C3)C2)CC[C@]2(CO2)[C@H]1[C@@]1(C)O[C@@H]1CC=C(C)C` [Example 92, (3R,4S,5S,6R)-5-methoxy-4-((2R,3R)-2-methyl-3-(3-methylbut-2-enyl)oxiran-2-yl)-1-oxaspiro[2.5]octan-6-yl 3-(2-(1-(2,2-difluoroethyl)azetidin-3-yl)ethyl)azetidine-1-carboxylate], `CO[C@@H]1[C@H](OC(=O)N2CC(CCN3CC[C@@H](O)C3)C2)CC[C@]2(CO2)[C@H]1[C@@]1(C)O[C@@H]1CC=C(C)C` [Example 47, (3R,4S,5S,6R)-5-methoxy-4-((2R,3R)-2-methyl-3-(3-methylbut-2-enyl)oxiran-2-yl)-1-oxaspiro[2.5]octan-6-yl 3-(2-((R)-3-hydroxypyrrolidin-1-yl)ethyl)azetidine-1-carboxylate] is lower in inhibition in vivo at 0.3 mg/kg: 20.7% for the first, 5.6% for the second.

Going from `CO[C@@H]1[C@H](OC(=O)N2CC(CCN3CC(C)(C#N)C3)C2)CC[C@]2(CO2)[C@H]1[C@@]1(C)O[C@@H]1CC=C(C)C` [Example 14, (3R,4S,5S,6R)-5-methoxy-4-((2R,3R)-2-methyl-3-(3-methylbut-2-enyl)oxiran-2-yl)-1-oxaspiro[2.5]octan-6-yl 3-(2-(3-cyano-3-methylazetidin-1-yl)ethyl)azetidine-1-carboxylate] to `CO[C@@H]1[C@H](OC(=O)N2CC(CCN3CCC(C)(C#N)CC3)C2)CC[C@]2(CO2)[C@H]1[C@@]1(C)O[C@@H]1CC=C(C)C` [Example 29, (3R,4S,5S,6R)-5-methoxy-4-((2R,3R)-2-methyl-3-(3-methylbut-2-enyl)oxiran-2-yl)-1-oxaspiro[2.5]octan-6-yl 3-(2-(4-cyano-4-methylpiperidin-1-yl)ethyl)azetidine-1-carboxylate], the inhibition in vivo at 0.3 mg/kg falls from 12.5% to 10.7%.

First: CO[C@@H]1[C@H](OC(=O)N2CC(OC(=O)N(C)C)C2)CC[C@]2(CO2)[C@H]1[C@@]1(C)O[C@@H]1CC=C(C)C [Example 77, (3R,4S,5S,6R)-5-methoxy-4-((2R,3R)-2-methyl-3-(3-methylbut-2-enyl)oxiran-2-yl)-1-oxaspiro[2.5]octan-6-yl 3-(dimethylcarbamoyloxy)azetidine-1-carboxylate]
Second: CO[C@@H]1[C@H](OC(=O)N2CC(COC(=O)N(C)C)C2)CC[C@]2(CO2)[C@H]1[C@@]1(C)O[C@@H]1CC=C(C)C [Example 70, (3R,4S,5S,6R)-5-methoxy-4-((2R,3R)-2-methyl-3-(3-methylbut-2-enyl)oxiran-2-yl)-1-oxaspiro[2.5]octan-6-yl 3-((dimethylcarbamoyloxy)methyl)azetidine-1-carboxylate]
The inhibition in vivo at 0.3 mg/kg of the first is higher: 16.3% for the first, 14.5% for the second.

First: CO[C@@H]1[C@H](OC(=O)N2CC(=CCN3CCOCC3)C2)CC[C@]2(CO2)[C@H]1[C@@]1(C)O[C@@H]1CC=C(C)C [Example 96, (3R,4S,5S,6R)-5-methoxy-4-((2R,3R)-2-methyl-3-(3-methylbut-2-enyl)oxiran-2-yl)-1-oxaspiro[2.5]octan-6-yl 3-(2-morpholinoethylidene)azetidine-1-carboxylate]
Second: CO[C@@H]1[C@H](OC(=O)N2CC(=CCN3CCN(CC(F)F)CC3)C2)CC[C@]2(CO2)[C@H]1[C@@]1(C)O[C@@H]1CC=C(C)C [Example 97, (3R,4S,5S,6R)-5-methoxy-4-((2R,3R)-2-methyl-3-(3-methylbut-2-enyl)oxiran-2-yl)-1-oxaspiro[2.5]octan-6-yl 3-(2-(4-(2,2-difluoroethyl)piperazin-1-yl)ethylidene)azetidine-1-carboxylate]
The inhibition in vivo at 0.3 mg/kg of the first is lower: 18.6% for the first, 21.3% for the second.

Compared with `CCN(CC)CC1CN(C(=O)O[C@@H]2CC[C@]3(CO3)[C@@H]([C@@]3(C)O[C@@H]3CC=C(C)C)[C@@H]2OC)CCO1` (stereo partly drawn) [Example 44, (3R,4S,5S,6R)-5-methoxy-4-((2R,3R)-2-methyl-3-(3-methylbut-2-enyl)oxiran-2-yl)-1-oxaspiro[2.5]octan-6-yl 2-((diethylamino)methyl)morpholine-4-carboxylate formate], `CCN(CC)CC[C@H]1CCCN1C(=O)O[C@@H]1CC[C@]2(CO2)[C@@H]([C@@]2(C)O[C@@H]2CC=C(C)C)[C@@H]1OC` [Example 50, (R)-((3R,4S,5S,6R)-5-methoxy-4-((2R,3R)-2-methyl-3-(3-methylbut-2-enyl)oxiran-2-yl)-1-oxaspiro[2.5]octan-6-yl) 2-(2-(diethylamino)ethyl)pyrrolidine-1-carboxylate formate] is higher in inhibition in vivo at 0.3 mg/kg: 2.1% for the first, 2.6% for the second.

Going from `CO[C@@H]1[C@H](OC(=O)N2CC(CCN3CCC(C#N)(C#N)CC3)C2)CC[C@]2(CO2)[C@H]1[C@@]1(C)O[C@@H]1CC=C(C)C` [Example 36, (3R,4S,5S,6R)-5-methoxy-4-((2R,3R)-2-methyl-3-(3-methylbut-2-enyl)oxiran-2-yl)-1-oxaspiro[2.5]octan-6-yl 3-(2-(4,4-dicyanopiperidin-1-yl)ethyl)azetidine-1-carboxylate] to `CO[C@@H]1[C@H](OC(=O)N2CC(CCN3CCCC3)C2)CC[C@]2(CO2)[C@H]1[C@@]1(C)O[C@@H]1CC=C(C)C` [Example 3, (3R,4S,5S,6R)-5-methoxy-4-((2R,3R)-2-methyl-3-(3-methylbut-2-enyl)oxiran-2-yl)-1-oxaspiro[2.5]octan-6-yl 3-(2-(pyrrolidin-1-yl)ethyl)azetidine-1-carboxylate formate], the inhibition in vivo at 0.3 mg/kg falls from 11.2% to 5.9%.

Going from `CO[C@@H]1[C@H](OC(=O)N2CC(CCN3CCN(S(C)(=O)=O)CC3)C2)CC[C@]2(CO2)[C@H]1[C@@]1(C)O[C@@H]1CC=C(C)C` [Example 15, (3R,4S,5S,6R)-5-methoxy-4-((2R,3R)-2-methyl-3-(3-methylbut-2-enyl)oxiran-2-yl)-1-oxaspiro[2.5]octan-6-yl 3-(2-(4-(methylsulfonyl)piperazin-1-yl)ethyl)azetidine-1-carboxylate] to `CO[C@@H]1[C@H](OC(=O)N2CC(CCN3CCS(=O)(=O)CC3)C2)CC[C@]2(CO2)[C@H]1[C@@]1(C)O[C@@H]1CC=C(C)C` [Example 10, (3R,4S,5S,6R)-5-methoxy-4-((2R,3R)-2-methyl-3-(3-methylbut-2-enyl)oxiran-2-yl)-1-oxaspiro[2.5]octan-6-yl 3-(2-thiomorpholinoethyl)azetidine 2,2-dioxide-1-carboxylate], the inhibition in vivo at 0.3 mg/kg rises from 0.1% to 1.8%.

Going from `CCN(CC)CCNC(=O)OCC1CN(C(=O)O[C@@H]2CC[C@]3(CO3)[C@@H]([C@@]3(C)O[C@@H]3CC=C(C)C)[C@@H]2OC)C1` [Example 68, (3R,4S,5S,6R)-5-methoxy-4-((2R,3R)-2-methyl-3-(3-methylbut-2-en-1-yl)oxiran-2-yl)-1-oxaspiro[2.5]octan-6-yl 3-((((2-(diethylamino)ethyl)carbamoyl)oxy)methyl)azetidine-1-carboxylate] to `CO[C@@H]1[C@H](OC(=O)N2CC(OC(=O)NCC(C)(C)O)C2)CC[C@]2(CO2)[C@H]1[C@@]1(C)O[C@@H]1CC=C(C)C` [Example 82, (3R,4S,5S,6R)-5-methoxy-4-((2R,3R)-2-methyl-3-(3-methylbut-2-enyl)oxiran-2-yl)-1-oxaspiro[2.5]octan-6-yl 3-(2-hydroxy-2-methylpropylcarbamoyloxy)azetidine-1-carboxylate], the inhibition in vivo at 0.3 mg/kg falls from 0% to -0.7%.

First: CO[C@H]1CCN(CCC2CN(C(=O)O[C@@H]3CC[C@]4(CO4)[C@@H]([C@@]4(C)O[C@@H]4CC=C(C)C)[C@@H]3OC)C2)C1 [Example 25, (3R,4S,5S,6R)-5-methoxy-4-((2R,3R)-2-methyl-3-(3-methylbut-2-enyl)oxiran-2-yl)-1-oxaspiro[2.5]octan-6-yl 3-(2-((S)-3-methoxypyrrolidin-1-yl)ethyl)azetidine-1-carboxylate]
Second: CO[C@@H]1[C@H](OC(=O)N2CC(CCN3CC[C@H](O)C3)C2)CC[C@]2(CO2)[C@H]1[C@@]1(C)O[C@@H]1CC=C(C)C [Example 46, (3R,4S,5S,6R)-5-methoxy-4-((2R,3R)-2-methyl-3-(3-methylbut-2-enyl)oxiran-2-yl)-1-oxaspiro[2.5]octan-6-yl 3-(2-((S)-3-hydroxypyrrolidin-1-yl)ethyl)azetidine-1-carboxylate formate]
The inhibition in vivo at 0.3 mg/kg of the first is lower: 4.8% for the first, 5.2% for the second.

Compared with `CO[C@@H]1[C@H](OC(=O)N2CC(OC(=O)N3CCS(=O)(=O)CC3)C2)CC[C@]2(CO2)[C@H]1[C@@]1(C)O[C@@H]1CC=C(C)C` [Example 79, 1-(((3R,4S,5S,6R)-5-methoxy-4-((2R,3R)-2-methyl-3-(3-methylbut-2-enyl)oxiran-2-yl)-1-oxaspiro[2.5]octan-6-yloxy)carbonyl)azetidin-3-yl thiomorpholine 2,2-dioxide-4-carboxylate formate], `CO[C@@H]1[C@H](OC(=O)N2CC(Oc3ccccn3)C2)CC[C@]2(CO2)[C@H]1[C@@]1(C)O[C@@H]1CC=C(C)C` [Example 99, (3R,4S,5S,6R)-5-methoxy-4-((2R,3R)-2-methyl-3-(3-methylbut-2-enyl)oxiran-2-yl)-1-oxaspiro[2.5]octan-6-yl 3-(pyridin-2-yloxy)azetidine-1-carboxylate] is higher in inhibition in vivo at 0.3 mg/kg: 0.1% for the first, 22.9% for the second.
